The numbers were not newly measured in patent publication US20190298660A1, “PHOSPHATE-CROSSLINKED STARCH NANOPARTICLES AND USE FOR DRUG DELIVERY” (GreenMark Biomedical Inc., priority 2018, published 2019), which cites them from elsewhere.

Usually pKa stands for the negative logarithm of the acid dissociation constant.

Regarding `COc1cccc2c1C(=O)c1c(O)c3c(c(O)c1C2=O)C[C@@](O)(C(=O)CO)C[C@@H]3O[C@H]1C[C@H](N)[C@H](O)[C@H](C)O1` [doxorubicin], the pKa is 9.53.
